According to article PMC5462101 (Future medicinal chemistry, 2015):
Marks after values point to notes of the source that are not given here.

Experiments:
soybean lipoxygenase = biological target: T1, soybean lipoxygenase (Glycine max, UniProt P08170); test: Inhibition of soybean lipoxygenase; format: biochemical
T1 construct: purchased Sigma
T1 sequence (P08170 1-839): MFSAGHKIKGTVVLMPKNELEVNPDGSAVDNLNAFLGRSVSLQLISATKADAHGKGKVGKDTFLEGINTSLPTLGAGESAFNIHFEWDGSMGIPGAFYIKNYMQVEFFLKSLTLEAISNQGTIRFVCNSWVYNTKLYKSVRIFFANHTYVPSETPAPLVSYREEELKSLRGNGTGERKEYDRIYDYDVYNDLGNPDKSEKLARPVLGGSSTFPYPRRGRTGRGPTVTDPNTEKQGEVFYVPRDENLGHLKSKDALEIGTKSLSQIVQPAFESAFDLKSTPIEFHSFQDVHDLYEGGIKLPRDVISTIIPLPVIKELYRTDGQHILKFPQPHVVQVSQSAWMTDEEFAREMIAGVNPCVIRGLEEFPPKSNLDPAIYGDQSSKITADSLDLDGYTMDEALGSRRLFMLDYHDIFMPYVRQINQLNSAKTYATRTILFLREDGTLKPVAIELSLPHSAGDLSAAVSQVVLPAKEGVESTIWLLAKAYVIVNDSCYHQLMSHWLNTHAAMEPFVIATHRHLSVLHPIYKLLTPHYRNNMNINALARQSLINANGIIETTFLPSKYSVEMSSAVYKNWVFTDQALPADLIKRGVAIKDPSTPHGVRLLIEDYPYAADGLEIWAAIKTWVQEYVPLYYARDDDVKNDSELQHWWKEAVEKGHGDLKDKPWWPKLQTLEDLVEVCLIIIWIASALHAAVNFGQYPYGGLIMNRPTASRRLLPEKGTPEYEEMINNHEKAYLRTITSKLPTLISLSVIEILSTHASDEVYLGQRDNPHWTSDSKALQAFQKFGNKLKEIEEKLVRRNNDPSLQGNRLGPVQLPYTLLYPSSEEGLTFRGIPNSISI
Protocol: The substituted pteridines prepared were assayed for inhibition of soybean lipoxygenase (Table 1) (Supplementary Information). Many studies have used readily obtainable soybean lipoxygenase, which is a homologue of mammalian lipoxygenase and well examined. The availability of soybean LOX and its well-characterized crystal structure led to its use in this study.
Determination of soybean lipoxygenase inhibition
A solution in DMSO of each compound to be tested was incubated at room temperature with sodium linoleate (0.1 mM) and a solution of soybean lipoxygenase (EC 1.13.11.12) (1:9 x 10^4 w/v in saline, 0.2 mL, Sigma). The conversion of sodium linoleate to 13-hydroperoxylinoleic acid was monitored by observation at 234 nm and compared with the value of appropriate standard inhibitor (Table 1).
(§1) IC50 determinations. OriginPro 8 was used to determine IC50 values from the sigmoidal line fitted to a graph of log[concentration] against the average percentage inhibition from two independent experiments, with at least 6 different concentrations. The SEM is the calculated standard error in the IC50 value of the fitted line.

[1] = Reducing ability in DPPH assay; conditions: compound 100 μM
Protocol: Previous work has shown that pterins, their dihydro- and their tetrahydro-derivatives can each be antioxidants or pro-oxidants, depending on the particular conditions. In the present study, several assays were used to assess in vitro antioxidant activity in order to obtain representative information; each method involves the generation of a different radical.
Determination of reducing activity using 1,1-diphenyl-2-picrylhydrazyl radical (DPPH)
To a solution of DPPH in absolute ethanol was added an equal volume of the compound to be tested dissolved in DMSO (20 µL). From a stock solution (10 mM) was prepared a final solution of 100 µM for evaluation of the compounds. The absorbance at 517 nm was recorded after 20 and 60 min at room temperature (Table 2).

[2] = Competition with DMSO for hydroxyl radicals; conditions: compound at 100 µM, Fe3+/ascorbic acid, DMSO 33 mM
Protocol: Competition of the novel pteridine derivatives with dimethyl sulfoxide for hydroxyl radicals was measured. […] The majority of the derivatives were excellent scavengers of hydroxyl radicals with activity higher than the reference compound 6-hydroxy-2,5,7,8-tetramethylchroman-2-carboxylic acid (Trolox).
Competition of pteridine derivatives with DMSO for hydroxyl radicals
Hydroxyl radicals generated by the Fe^3+/ascorbic acid system were detected by determination of formaldehyde produced from the oxidation of DMSO, according to the procedure of Nash. The reaction mixture comprised ethylenediaminetetracetic acid (EDTA) (0.1 mM), Fe^3+ (167 μM), DMSO (33 mM) in phosphate buffer (50 mM, pH 7.4), ascorbic acid (10 mM) and the compound to be tested at 100 µM. After incubation at 37 °C for 30 min the mixture was quenched with aqueous trichloroacetic acid (17% w/v) (Table 2) and the percentage competition of the tested compounds with DMSO for hydroxyl radicals was determined (Table 2).

[3] = Inhibition of linoleic acid peroxidation (AAPH); conditions: linoleic acid peroxidation initiated by AAPH, 37 °C, pH 7.4
Description: Azo compounds that generate free radicals through spontaneous thermal decomposition are useful for in vitro studies of free radical production. The water-soluble AAPH has been extensively used as a clean and controllable source of thermally produced alkylperoxyl free radicals. […] Evidently, the presence of 6,7-dimethyl groups on the pteridine ring greatly enhances protection against lipid peroxidation; the nature of the alkyl group and ring size on the 2-substituent has some, but much less, effect. […] The role of lipophilicity (as assessed from calculated clogP values; Table 1) is not clear, but substituent bulk plays a significant role.
Inhibition of linoleic acid peroxidation
Production of conjugated diene hydroperoxide by oxidation of linoleic acid in an aqueous dispersion was monitored at 234 nm. 2,2’-Azobis(2-amidinopropane) dihydrochloride (AAPH) was used as a free radical initiator. This assay was used to follow oxidative changes and to determine the inhibition of the peroxidation of sodium linoleate by each tested compound. A dispersion of sodium linoleate (16 mM, 10 μL) was added to the UV cuvette containing phosphate buffer (0.05 M, 0.93 mL) at pH 7.4 and kept in a thermostat at 37 °C. The oxidation reaction was initiated at 37 °C under air by the addition of AAPH solution (40 mM, 50 μL). Oxidation was carried out in the presence of aliquots (10 μL) of the tested compound. In the assay without antioxidant, lipid oxidation was measured in the presence of DMSO (10 μL). The rate of oxidation at 37 °C was monitored by recording the increase in absorption at 234 nm caused by conjugated diene hydroperoxide formation (Table 2).
as §1

rat model of colitis = test: Acetic acid-induced colitis in the rat; format: in vivo, Fisher 344 rats; conditions: 0.01 mmol/kg intrarectally, 4% acetic acid; for Change in body weight (%): assessed after 48 h; for Score (levels 0–5): colonic damage score, 48 h
Protocol: LOX has also been associated with inflammation and ulcerative colitis. In the present study, a model for colitis involving intracolonic administration of aqueous 4% acetic acid in the rat was used, leading to acute inflammatory reaction. Treated rats presented partial to diffuse petechial bleeding, single erosion and limited ulceration indicating an overall healing effect of the compounds. Substituted pteridines presenting a satisfactory combination of activities 5a, 18a, 18d and 18f were tested using this in vivo model characterized by diffuse exfoliated mucosa as well as multiple and extended erosion and ulcers of the colon (Table 3). No mortality was encountered.
(§2) Fisher 344 rats (150-200 g) were housed in wire-mesh cages, given standard laboratory chow and tap water ad libitum and acclimatized for one week before experiments. Rats were randomly assigned to experimental groups. All in vivo experiments conform to the law for the protection of experimental animals (Republic of Greece) and are registered at the Veterinary Administration of the Republic of Greece in accordance with recognized guidelines on animal experimentation including Directive 2010/63/EU.
Induction of colitis
Rats were anesthetized using pentobarbital (50 mg/kg ip) prior to administration with 1 mL of either vehicle (0.9% w/v saline) or the compound under study at doses 0.01mmol/kg intrarectally via a polyethylene cannula (fitted to a 1 mL syringe) with the tip inserted approximately 8 cm into the anus. Following 30 min pretreatment, 1 ml of 4% acetic acid was introduced into the colon intrarectally and, after exposure for 60 s, the excess fluid was withdrawn. The luminal content was then expelled by instillation of air (10 mL), the ligature was removed and the abdomen was sutured. Both groups of rats were allowed to recover with food and water and the resulting injury was assessed after 48 h. The experiment was conducted using two groups, each containing 3 animals.
Assessment of colonic damage. Rats were weighed, inspected for the presence of diarrhea and sacrificed using diethyl ether. The colons were excised and opened longitudinally, rinsed with cold saline, pinned out and observed under a dissecting microscope. Colonic damage was scored using the system of MacPherson and Pfeiffer: 0 – normal appearance, 1- hyperaemia, 2 – patchy petechial bleeding, 3 – diffuse petechial bleeding, 4 – partial exfoliated mucosa or single erosion or ulceration, 5 – diffuse exfoliated mucosa or multiple erosions or ulceration. The presence or absence of adhesions between the colon and the surrounding tissues was recorded. Scoring of the colonic damage (Table 4) was carried out by an observer unaware of the treatment.

[4] = system: carrageenin-induced rat paw edema; test: Inhibition of carrageenin-induced rat paw edema; format: in vivo, Fisher 344 rats; conditions: rat, 0.01 mmol/kg intraperitoneally, 1 h, mean of two experiments
Protocol: The incipient pattern of this edema is characterized by the effects of histamine and 5-hydroxytryptamine. After 1 h, reduction of edema in the rat paw achieved by the pteridine 18f was appreciably greater than the reduction induced by the reference compound indomethacin, a nonselective COX-inhibitor and commonly used nonsteroidal anti-inflammatory drug. Thus, 18f and some related pteridines offer significant protection against reactive oxygen species produced in a model of colitis, probably on account of their properties as antioxidants and radical scavengers.
as §2
Inhibition of carrageenin-induced edema
Edema was induced in the right hind paw of Fisher 344 rats (150-200 g) by intradermal injection of aqueous carrageenin (0.1 mL, 2%). Pregnant females were excluded from the study, but both sexes were used. Each group comprised 6-15 rats which were bred and housed under standard conditions and received a diet of commercial food pellets and water ad libitum during maintenance but were entirely fasted during the experiment period. Each compound (0.01 mmol/kg body weight) was suspended in water to which had been added a few drops of Tween 80 and then the mixture was ground in a mortar prior to being administered intraperitoneally and simultaneously with the carrageenin injection. Rats were euthanized 1 h after injection, and the difference between the weight of the injected and non-injected paws was calculated for each animal. The change in paw weight was compared with that in control animals (treated with water) and the inhibition of the edema was expressed as a percentage (Table 4). […]

inhibition at 100 µM (soybean lipoxygenase; compound at 100 µM, read-out: Lipoxygenase inhibitory activity (% at 100 µM)) [%]	IC50 [3] [µM]	IC50 (soybean lipoxygenase; sodium linoleate 0.1 mM, read-out: Lipoxygenase inhibitory activity (IC50)) [µM]	Compound	RA (%) 100μM 20 min [1] [%]	RA (%) 100μM 60 min [1] [%]	Hydroxyl radicals scavenged (%) [2] [%]	Change in body weight (%) (rat model of colitis)	Score (levels 0–5) (rat model of colitis)	Reduction of rat paw edema after 1 h (%) [4]
31.5 ± 0.2	22 ± 0.8	–	CN1CCN(c2nc(NCc3ccccc3)c3nccnc3n2)CC1 [Compound 18a]	2	7	91	-4.2	One rat exhibited hyperemia (1); the rest presented petechial bleeding (patchy to diffuse) (2–3)	–
–	32.5 ± 1	0.1 ± 0.01	CN1CCN(c2nc(NCc3cccnc3)c3nccnc3n2)CC1 [Compound 18d]	10	11	95	-7	One rat exhibited patchy petechial bleeding (2), and another diffuse petechial bleeding (3); the rest presented partial exfoliated mucosa or single erosion or ulcer	–
–	–	–	COc1ccc2c(c1)c(CC(=O)O)c(C)n2C(=O)c1ccc(Cl)cc1 [Indomethacin, indomethacin, reference compound]	–	–	–	–	–	25 ^† %
